Results from PubChem BioAssay AID504568 (NMMLSC, 2011).
Activity calls are given as the source filed them.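 How the source made its calls: active means binding readouts below 60% of the midpoint between blocked and unblocked controls, with summed weighted score above 1; inactive means the rest.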

Each compound was assayed on 2C TCR mouse CD8+ T cells, vesicle binding, flow cytometry (assay: modulators of T cell-vesicle binding via LFA-1, confirmation, powder samples, single concentration, mouse 2C TCR, flow cytometry (AID 504568;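 further: lower values mean less vesicle binding and point to an inhibitor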;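 on double-positive events (T cell-vesicle binding): the gate for binding is set so anti-LFA-1 blocked control wells show 10% double positives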)). Details: stronger effect = lower value.

Row | SMILES | double-positive events (T cell-vesicle binding)
1 | CCOC(=O)C1CCCN(S(=O)(=O)c2ccc(F)c(C(=O)Nc3ccc(F)c(F)c3)c2)C1 (centres undefined) | 22.4%
2 | O=C1CC(c2nc3ccccc3[nH]2)CN1Cc1ccccc1 (centres undefined) | 22.6%
3 | CCCNC(=O)c1nc2ncc(Br)cn2n1 | 25.8% (inactive)
4 | CN(CC(=O)Nc1cc(S(=O)(=O)N2CCCC2)ccc1Cl)Cc1ccc2c(c1)OCO2 | 20.9%
5 | Cn1c(CNC(=O)CNC(=O)c2ccc(F)cc2)cc(=O)n(C)c1=O | 29.7% (inactive)
6 | COc1ccc([N+](=O)[O-])cc1NC(=O)c1ccc(N(Cc2ccccc2C)S(C)(=O)=O)cc1 | 23%
7 | COc1ccc(CNC(=O)c2cccnc2SC)cc1OC | 26.7% (inactive)
8 | Cc1ncc([N+](=O)[O-])n1Cc1cccc(F)c1 | 28.5% (inactive)
9 | Cc1ccc(C(=O)NCCCN2CCOCC2)c(C)c1 | 24.4%
10 | Cc1ccc(Cn2c([N+](=O)[O-])cnc2C)cc1 | 23.1%
11 | O=C(Cn1cc(C(F)(F)F)cc(Cl)c1=O)NCCc1ccc(Cl)cc1Cl | 26.4% (inactive)
12 | CC(Sc1nc2ccccc2[nH]1)C(=O)NC1CCCCC1C (centres undefined) | 25.7% (inactive)
13 | CCOc1ccc(-c2nc(N)ncc2-c2ccccc2)c(O)c1 | 20.9%
14 | Cc1cccc(NC(=O)C2CCN(S(=O)(=O)c3c(C)[nH]c(=O)[nH]c3=O)CC2)c1 | 27.4% (inactive)
15 | O=C(c1ccc(N2C(=O)C3CC=C(Cl)CC3C2=O)cc1)N1CCCCC1 (centres undefined) | 22.8% (inactive)
16 | COCCCN1CCc2[nH]c(=S)[nH]c(=O)c2C1 | 28% (inactive)
17 | CCN(CC)C(=O)N1CCN(S(=O)(=O)c2ccc(C)cc2)CC1 | 26% (inactive)
18 | O=C(OCCOc1cccc(Cl)c1)c1ccc(F)c(S(=O)(=O)N2CCOCC2)c1 | 25.8% (inactive)
19 | COc1cccc(NC(=O)Nc2ccc3nc(C)c(C)nc3c2)c1 | 18.7%
20 | CCOCC(=O)Nc1ccc(S(=O)(=O)N2CCC(c3nc4ccccc4[nH]3)CC2)cc1 | 16.4%
21 | Cc1ccc(NC(=O)COC(=O)CCc2c[nH]c3ccccc23)c(C)c1 | 25.1%
22 | NC(=O)C1CCN(c2nc(-c3cc4ccccc4o3)cs2)CC1 | 26.2% (inactive)
23 | COC(=O)c1ccccc1NC(=O)C1CCN(C(=O)c2cc(OC)cc(OC)c2)CC1 | 29.9% (inactive)
24 | Cc1cc(C)n(C(=O)c2sc3cc(F)ccc3c2Cl)n1 | 24.5%
25 | Cc1ccccc1C(=O)N1CCC(C(=O)Nc2ccc(C)c(S(=O)(=O)N3CCCCC3)c2)CC1 | 22.7%
26 | COc1ccccc1NS(=O)(=O)c1cc(NC(=O)CNC(=O)c2cc(C)cc(C)c2)ccc1C | 27.3% (inactive)

Row | SMILES | double-positive events (T cell-vesicle binding)
27 | CC(=O)Nc1ccc(S(=O)(=O)NC2CCSc3ccccc32)cc1 (centres undefined) | 23.2% (inactive)
28 | CCOC(=O)c1ccc(S(=O)(=O)N2CCN(C3CCCC3)CC2)cc1 | 23% (inactive)
29 | COc1ccccc1CNC(=O)COc1ccc(C)cc1 | 24.8% (inactive)
30 | Cc1ccc(O)c(CCc2ccccc2)n1 | 22.9%
31 | CN(C)S(=O)(=O)c1ccc(C(=O)NCCc2ccco2)cc1 | 22.8%
32 | O=C(CC1=NCCNC(c2ccccc2)C1)c1ccccc1O (centres undefined) | 28% (inactive)
33 | CCC1(C)NC(=O)N(CC(=O)N2N=C(c3ccccc3)CC2c2ccc(OC)cc2)C1=O (centres undefined) | 24% (inactive)
34 | CCN(CC)S(=O)(=O)c1ccc(Cl)c(NC(=O)COC(=O)C2CCCCC2)c1 | 14.5%
35 | COc1ccc(Nc2ccccc2N)cc1 | 32.7% (inactive)
36 | COc1ccc(/C=C2\SC(=S)N(CCC(=O)N3CCOCC3)C2=O)cc1 | 22.1%
37 | CCCc1nnc(NC(=O)c2ccc(S(=O)(=O)N(C)c3ccccc3OC)cc2)s1 | 26.1% (inactive)
38 | O=C(NCC1CCCCC1)c1ccc(Cl)c(S(=O)(=O)N2CCOCC2)c1 | 17.8%
39 | CN1CCN(S(=O)(=O)c2ccc(C(=O)Nc3ccccc3)cc2)CC1 | 26.1% (inactive)
40 | CCOC(=O)c1c(N2C(=O)CC(Sc3ccccc3C(=O)O)C2=O)sc2c1CCCC2 (centres undefined) | 9.25%
41 | Cc1cc(Cl)c(OCCCSc2nc(C)cc(=O)[nH]2)c(Br)c1 | 25%
42 | CCOC(=O)N1CCN(C(=O)c2ccc(CS(=O)Cc3ccc(C)cc3)o2)CC1 (centres undefined) | 26.5% (inactive)
43 | COCc1c(C(=O)Nc2cccc(S(=O)(=O)N3CCCCC3)c2)oc2ccccc12 | 14.8%
44 | COc1ccc(NC(=O)CSCC(=O)Nc2cccc(S(=O)(=O)N3CCCCCC3)c2)cc1 | 21.7%
45 | Cc1ccccc1C(=O)NCC(=O)N1CCN(C/C=C/c2ccccc2)CC1 | 21.8%
46 | Cc1ccc(S(=O)(=O)N2CCN(C(=O)CNC(=O)c3ccc(Cl)cc3)CC2)cc1 | 29.6% (inactive)
47 | O=C(NCc1cccnc1)C(=O)NCC(c1ccco1)N1CCN(c2ccccc2)CC1 (centres undefined) | 26.8% (inactive)
48 | O=C(NCCN1CCN(c2ccccc2)CC1)c1cccc(Br)c1 | 24.2% (inactive)
49 | CCOC(=O)c1ccc(NC(=O)CN2C(=O)NC3(CCCCCCC3)C2=O)cc1 | 27.4%
50 | CCOc1ccc(CCNC(=O)CCS(=O)(=O)c2ccc(C)cc2)cc1OCC | 23.5%
51 | COc1ccc(S(=O)(=O)N2CCCC2C(=O)Nc2ccc(C(C)=O)cc2)cc1 (centres undefined) | 26.1% (inactive)
52 | Cc1ccc(N2CC(C(=O)NC3=NCCS3)CC2=O)cc1 (centres undefined) | 21.9% (inactive)

Same assay, conditions: measured here: CD8+ cell vesicle fluorescence mean, stronger effect = lower value

Row | SMILES | mean fluorescence percent response
53 | CCOC(=O)C1CCCN(S(=O)(=O)c2ccc(F)c(C(=O)Nc3ccc(F)c(F)c3)c2)C1 (centres undefined) | 162%
54 | O=C1CC(c2nc3ccccc3[nH]2)CN1Cc1ccccc1 (centres undefined) | 124%
55 | CCCNC(=O)c1nc2ncc(Br)cn2n1 | 154%
56 | CN(CC(=O)Nc1cc(S(=O)(=O)N2CCCC2)ccc1Cl)Cc1ccc2c(c1)OCO2 | 123%
57 | Cn1c(CNC(=O)CNC(=O)c2ccc(F)cc2)cc(=O)n(C)c1=O | 165%
58 | COc1ccc([N+](=O)[O-])cc1NC(=O)c1ccc(N(Cc2ccccc2C)S(C)(=O)=O)cc1 | 105%
59 | COc1ccc(CNC(=O)c2cccnc2SC)cc1OC | 163%
60 | Cc1ncc([N+](=O)[O-])n1Cc1cccc(F)c1 | 152%
61 | Cc1ccc(C(=O)NCCCN2CCOCC2)c(C)c1 | 136%
62 | Cc1ccc(Cn2c([N+](=O)[O-])cnc2C)cc1 | 153%
63 | O=C(Cn1cc(C(F)(F)F)cc(Cl)c1=O)NCCc1ccc(Cl)cc1Cl | 136%
64 | CC(Sc1nc2ccccc2[nH]1)C(=O)NC1CCCCC1C (centres undefined) | 141%
65 | CCOc1ccc(-c2nc(N)ncc2-c2ccccc2)c(O)c1 | 126%
66 | Cc1cccc(NC(=O)C2CCN(S(=O)(=O)c3c(C)[nH]c(=O)[nH]c3=O)CC2)c1 | 161%
67 | O=C(c1ccc(N2C(=O)C3CC=C(Cl)CC3C2=O)cc1)N1CCCCC1 (centres undefined) | 130%
68 | COCCCN1CCc2[nH]c(=S)[nH]c(=O)c2C1 | 169%
69 | CCN(CC)C(=O)N1CCN(S(=O)(=O)c2ccc(C)cc2)CC1 | 129%
70 | O=C(OCCOc1cccc(Cl)c1)c1ccc(F)c(S(=O)(=O)N2CCOCC2)c1 | 163%
71 | COc1cccc(NC(=O)Nc2ccc3nc(C)c(C)nc3c2)c1 | 113%
72 | CCOCC(=O)Nc1ccc(S(=O)(=O)N2CCC(c3nc4ccccc4[nH]3)CC2)cc1 | 97.1%
73 | Cc1ccc(NC(=O)COC(=O)CCc2c[nH]c3ccccc23)c(C)c1 | 147%
74 | NC(=O)C1CCN(c2nc(-c3cc4ccccc4o3)cs2)CC1 | 140%
75 | COC(=O)c1ccccc1NC(=O)C1CCN(C(=O)c2cc(OC)cc(OC)c2)CC1 | 172%
76 | Cc1cc(C)n(C(=O)c2sc3cc(F)ccc3c2Cl)n1 | 90.2%
77 | Cc1ccccc1C(=O)N1CCC(C(=O)Nc2ccc(C)c(S(=O)(=O)N3CCCCC3)c2)CC1 | 130%
78 | COc1ccccc1NS(=O)(=O)c1cc(NC(=O)CNC(=O)c2cc(C)cc(C)c2)ccc1C | 153%

Row | SMILES | mean fluorescence percent response
79 | CC(=O)Nc1ccc(S(=O)(=O)NC2CCSc3ccccc32)cc1 (centres undefined) | 120%
80 | CCOC(=O)c1ccc(S(=O)(=O)N2CCN(C3CCCC3)CC2)cc1 | 155%
81 | COc1ccccc1CNC(=O)COc1ccc(C)cc1 | 173%
82 | Cc1ccc(O)c(CCc2ccccc2)n1 | 120%
83 | CN(C)S(=O)(=O)c1ccc(C(=O)NCCc2ccco2)cc1 | 122%
84 | O=C(CC1=NCCNC(c2ccccc2)C1)c1ccccc1O (centres undefined) | 170%
85 | CCC1(C)NC(=O)N(CC(=O)N2N=C(c3ccccc3)CC2c2ccc(OC)cc2)C1=O (centres undefined) | 144%
86 | CCN(CC)S(=O)(=O)c1ccc(Cl)c(NC(=O)COC(=O)C2CCCCC2)c1 | 126%
87 | COc1ccc(Nc2ccccc2N)cc1 | 138%
88 | COc1ccc(/C=C2\SC(=S)N(CCC(=O)N3CCOCC3)C2=O)cc1 | 102%
89 | CCCc1nnc(NC(=O)c2ccc(S(=O)(=O)N(C)c3ccccc3OC)cc2)s1 | 131%
90 | O=C(NCC1CCCCC1)c1ccc(Cl)c(S(=O)(=O)N2CCOCC2)c1 | 136%
91 | CN1CCN(S(=O)(=O)c2ccc(C(=O)Nc3ccccc3)cc2)CC1 | 138%
92 | CCOC(=O)c1c(N2C(=O)CC(Sc3ccccc3C(=O)O)C2=O)sc2c1CCCC2 (centres undefined) | 59.9%
93 | Cc1cc(Cl)c(OCCCSc2nc(C)cc(=O)[nH]2)c(Br)c1 | 126%
94 | CCOC(=O)N1CCN(C(=O)c2ccc(CS(=O)Cc3ccc(C)cc3)o2)CC1 (centres undefined) | 146%
95 | COCc1c(C(=O)Nc2cccc(S(=O)(=O)N3CCCCC3)c2)oc2ccccc12 | 104%
96 | COc1ccc(NC(=O)CSCC(=O)Nc2cccc(S(=O)(=O)N3CCCCCC3)c2)cc1 | 136%
97 | Cc1ccccc1C(=O)NCC(=O)N1CCN(C/C=C/c2ccccc2)CC1 | 150%
98 | Cc1ccc(S(=O)(=O)N2CCN(C(=O)CNC(=O)c3ccc(Cl)cc3)CC2)cc1 | 165%
99 | O=C(NCc1cccnc1)C(=O)NCC(c1ccco1)N1CCN(c2ccccc2)CC1 (centres undefined) | 149%
100 | O=C(NCCN1CCN(c2ccccc2)CC1)c1cccc(Br)c1 | 152%
101 | CCOC(=O)c1ccc(NC(=O)CN2C(=O)NC3(CCCCCCC3)C2=O)cc1 | 149%
102 | CCOc1ccc(CCNC(=O)CCS(=O)(=O)c2ccc(C)cc2)cc1OCC | 117%
103 | COc1ccc(S(=O)(=O)N2CCCC2C(=O)Nc2ccc(C(C)=O)cc2)cc1 (centres undefined) | 142%
104 | Cc1ccc(N2CC(C(=O)NC3=NCCS3)CC2=O)cc1 (centres undefined) | 161%
